Experimental data as given in patent US12415926B2, “Small tunable fluorophores for the detection and imaging of biomolecules” (The University Court of the University of Edinburgh, priority 2019, dated 2025).

What was measured:
GLUT2 = experiment: Zebrafish in vivo imaging of glucose uptake; details: 28 hpf, 50 pmol into yolk sac
Experimental: (§1) A-F) Green (GLUT4-EGFP), red (SCOTfluor-89, 100 μM) and merged (Hoechst 33342) images of HeLa cells without additional glucose (A-C) and in media containing 5 mM D-glucose ([…]). White arrows identify co-localization of GLUT4-EGFP and SCOTfluor-89. Scale bar: 10 μm. G) Fluorescence emission spectra of BFP (blue), GFP (green) and SCOTfluor-89 (red). H) Insulin-dependent (100 nM, 1 h) uptake of SCOTfluor-89 (red, 100 μM) in GLUT4-EGFP HeLa cells. I) Chemical structures of compounds SCOTfluor-54 and SCOTfluor-89. J) In vivo images of the head in zebrafish embryos (28 hpf) after injection of SCOTfluor-54 or SCOTfluor-89 (both 50 pmol) to the yolk sac (blue arrowheads). Fluorescence images were taken of wildtype zebrafish or zebrafish that had been injected at one cell stage with 4.2 ng anti-sense glut2 morpholino. Yellow arrows point at midbrain and hindbrain regions within the zebrafish embryo heads. Scale bar: 100 μm.
Anti-sense glut2 morpholino (5′-ATGACCTGCAGAC AACAAGGACACC-3′)^1 was reconstituted to 1 mM in nuclease-free H2O and injected at 4.2 ng/embryo into the one-cell stage. Embryos were maintained at 28.5° C., according to standard protocols. Wild-type controls and glut2 morphants were injected into the yolk sac at 28 hours post fertilization (hpf) with compound SCOTfluor-89 (50 pmol) and 1 mg mL^−1 10,000 MW Dextran Cascade Blue® (ThermoFisher), then embedded in 1% low-melting point agarose for live imaging. Live imaging was performed 30 min post-injection on an inverted Leica SP8 confocal microscope using a HC PL APO CS2 10×/0.40 dry lens. Dextran was excited at 405 nm laser and detected at 415-480 nm, while compound SCOTfluor-89 was excited at 488 nm and detected at 498-600 nm.
It was also examined whether SCOTfluors could be used to image in vivo tissues with high metabolic activity. Fluorescent deoxyglucose tracers can monitor glucose uptake in metabo-lically-active cells and tissues, although few have been reported for in vivo use. Herein synthesized compound SCOTfluor-89 was synthetized as an in vivo-compatible glucose analog by nucleophilic substitution of nitrobenzoselenadiazole with 2-deoxyglucosamine. […] The transport of SCOTfluor-89 in HeLa cells transfected with EGFP-tagged GLUT4, the main glucose transporter in mammalian cells was examined. […] Finally, compound SCOTfluor-89 was tested in vivo in zebrafish embryos to visualize regions of high glucose uptake. […] We confirmed that the staining was dependent on the active transport of SCOTfluor-89 through GLUT2 by examining glut2 morpholino-injected zebrafish, which have reduced levels of GLUT2.

HeLa cells = experiment: Cytotoxicity assay in HeLa cells; details: 100 μM and 75 μM (1% DMSO), 4 h at 37° C.
Experimental: Cell viabilities were normalized to incubation in cell culture media under the same experimental conditions. A solution of 40% DMSO in cell culture media was used as a known cytotoxic positive control. Values represented as means±s.e.m. (n=3).

[1] = Optical properties of SCOTfluors (absorbance, emission, extinction coefficient, quantum yield, solvatochromism); type: physicochemical
Experimental: All compounds were dissolved in different organic solvents, including toluene, chloroform, tetrahydrofuran, ethanol, DMSO and water (final concentrations: 10-50 μM). Fluorescence spectra were acquired on a spectrophotometer upon excitation at their maxima absorbance wavelengths.
The optical properties of SCOTfluor-80, 79, 78, 76 and 81 were compared with the properties of the original NBD.

GLUT4 = biological target: T1, GLUT4 (Homo sapiens, UniProt P14672); experiment: Uptake in GLUT4-EGFP transfected HeLa cells (fluorescence microscopy); type: cell-based; details: 100 μM
T1 construct: PYP (photoactive yellow protein tag); HA; expressed in transfected cells; host or cells: HeLa
T1 sequence (P14672 1-509): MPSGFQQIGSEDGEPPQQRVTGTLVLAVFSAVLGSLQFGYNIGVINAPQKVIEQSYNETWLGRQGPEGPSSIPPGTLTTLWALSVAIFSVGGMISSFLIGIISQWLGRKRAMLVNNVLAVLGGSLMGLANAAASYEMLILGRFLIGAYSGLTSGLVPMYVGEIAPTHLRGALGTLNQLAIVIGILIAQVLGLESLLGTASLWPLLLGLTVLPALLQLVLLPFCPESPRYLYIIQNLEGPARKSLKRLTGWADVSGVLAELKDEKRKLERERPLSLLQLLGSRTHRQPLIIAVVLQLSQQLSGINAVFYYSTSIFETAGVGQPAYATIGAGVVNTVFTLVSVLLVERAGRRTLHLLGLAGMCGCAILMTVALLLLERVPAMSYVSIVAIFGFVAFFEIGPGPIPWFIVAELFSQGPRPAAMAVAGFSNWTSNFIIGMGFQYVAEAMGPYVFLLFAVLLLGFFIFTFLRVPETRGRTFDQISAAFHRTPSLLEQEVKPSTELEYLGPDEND
Experimental: as §1
(§2) A549 and HeLa cells were obtained from LGC Standards and cultured in Dulbecco's modified Eagle's medium (DMEM) supplemented with 10% FBS, 100 U mL^−1 penicillin and 0.1 mg mL^−1 streptomycin. For transfection experiments, HeLa cells were transfected with pcDNA-PYP-GLUT4-HA-EGFP. Amplification of plasmid-DNA was performed by transformation of competent E. coli DH5a, followed by isolation of pcDNA-PYP-GLUT4-HA-EGFP using GeneJet Plasmid Miniprep kit (ThermoFisher) according to the manufacturer's instructions. Prior to transfection, pcDNA concentration was determined using NanoDrop. Transfection of HeLa cells was performed according to manufacturer's protocol with 1 μg pcDNA-PYP-GLUT4-HA-EGFP using Lipofectamine 3000. Non-transfected as well as transfected cells were maintained at 37° C. and 5% CO2 throughout the imaging experiments.
Confocal fluorescence microscopy was performed on a confocal Leica SP5 or a spinning disk microscope with excitation at 488 nm (ER Tracker, LysoTracker, EGFP & SCOTfluor-89), 561 nm (SCOTfluor-101) and 405 nm (Hoechst 33342). […]

[2] = Emission of SCOTfluor-101 in PBS/water and in liposomes; type: physicochemical
A549 cells = experiment: Time-lapse confocal microscopy co-localization with ER and lysosome markers; type: cell-based, human; details: 50 μM
Experimental: C) Time-lapse confocal microscopy images of A549 cells treated with SCOTfluor-101 (50 μM, red), LysoTracker Blue (magenta) and ER Tracker Green (green) after 15 min (co-localization: white arrows) and 3 h (co-localization: yellow arrows). Total co-localization coefficients (R) were determined using ImageJ. Scale bar: 15 μm.
as §2
Confocal fluorescence microscopy was performed on a confocal Leica SP5 or a spinning disk microscope with excitation at 488 nm (ER Tracker, LysoTracker, EGFP & SCOTfluor-89), 561 nm (SCOTfluor-101) and 405 nm (Hoechst 33342). Prior to time-lapse imaging and imaging of HeLa cells, cells were incubated in Krebs-Ringer bicarbonate buffer (KRB) (129 mM NaCl, 4.7 mM KCl, 1.2 mM KH2PO4, 5 mM NaHCO3, 10 mM HEPES; 2.5 mM CaCl2, 1.2 mM MgCl2 and 0.2% BSA, pH 7.4) at 37° C. for 3 h. When appropriate, HeLa cells were washed and imaged in KRB with 1 μM Hoechst 33342 at 37° C., 5% CO2.
Then, the properties of SCOTfluors for imaging the trafficking of essential metabolites under physiological conditions. […] This property was exploited to visualize the recycling of ceramide SCOTfluor-101 in real time in human A549 cells using fluorescence confocal microscopy. […]

[3] = glut2 morpholino-injected zebrafish embryos

| Compound | cytotoxicity (cell viability) (HeLa cells) | Φ [1] | ε [1] | λabs. [1] | λem. [1] | other results |
| --- | --- | --- | --- | --- | --- | --- |
| CCN(CC)c1ccc([N+](=O)[O-])c2n[se]nc12 [SCOTfluor-54] |  |  |  |  |  | in vivo fluorescence staining (GLUT2; [3]): no tissue-specific staining; in vivo fluorescence staining (GLUT2; wildtype zebrafish embryos): no tissue-specific staining |
| CCCNc1ccc([N+](=O)[O-])c2n[se]nc12 [SCOTfluor-76] | no significant cytotoxicity | 0.20 | 16,300 M^−1cm^−1 | 510 nm | 606 nm |  |
| CCCNc1ccc([N+](=O)[O-])c2nsnc12 [SCOTfluor-78] |  | 0.54 | 14,600 M^−1cm^−1 | 476 nm | 548 nm |  |
| CCCNc1ccc([N+](=O)[O-])c2n[nH]nc12 [SCOTfluor-79] |  | <0.01 | 37,300 M^−1cm^−1 | 420 nm | 460 nm |  |
| CCCNc1ccc([N+](=O)[O-])c2c1=NC(C)(C)N=2 [SCOTfluor-80] |  | 0.09 | 27,300 M^−1cm^−1 | 564 nm | 650 nm |  |
| CCCNc1ccc([N+](=O)[O-])c2c1=NC1(CCCCC1)N=2 [SCOTfluor-81] | no significant cytotoxicity | 0.11 | 28,300 M^−1cm^−1 | 546 nm | 650 nm |  |
| O=[N+]([O-])c1ccc(N[C@H]2C(O)O[C@H](CO)[C@@H](O)[C@@H]2O)c2n[se]nc12 (stereo partly drawn) [SCOTfluor-89, (3R,4R,5S,6R)-6-(hydroxymethyl)-3-((7-nitrobenzo[c][1,2,5]selenadiazol-4-yl)amino)tetrahydro-2H-pyran-2,4,5-triol] | no significant cytotoxicity |  |  |  |  | in vivo fluorescence staining (GLUT2; [3]): much weaker fluorescence; in vivo fluorescence staining (GLUT2; wildtype zebrafish embryos): bright red fluorescence staining in regions of the developing brain; transport by GLUT4 (GLUT4): functional substrate of GLUT4; uptake under competition with excess glucose (GLUT4; 5 mM D-glucose): blocked; uptake after pre-treating with insulin (GLUT4; insulin 100 nM, 1 h): increased; Stokes shift [1]: 115 nm; emission [1]: around 605 nm |
| CCCCCCCCCCCCC/C=C/[C@@H](O)[C@H](CO)NC(=O)CCCCCNc1ccc([N+](=O)[O-])c2c1=NC(C)(C)N=2 [SCOTfluor-101, N-((2S,3R,E)-1,3-dihydroxyoctadec-4-en-2-yl)-6-((2,2-dimethyl-7-nitro-2H-benzo[d]imidazol-4-yl)amino)hexanamide] | no significant cytotoxicity |  |  |  |  | increase in emission on incubation with liposomes ([2]; phosphatidylcholine:cholesterol (7:1) liposomes vs PBS): over 15 fold; aggregation in water ([2]; water): minimal aggregation; emission [1]: > 660 nm; co-localization (R) with ER Tracker Green (A549 cells; 15 min): 91%; co-localization (R) with LysoTracker Blue (A549 cells; 15 min): 26%; co-localization (R) with LysoTracker Blue (A549 cells; after 3 h): 75% |
| Nitrobenzodioxazole [NBD, reference compound] |  | 0.55 | 15,400 M^−1cm^−1 | 486 nm | 542 nm |  |
